Literature values, collected in patent US12384832B2 (priority 2019, dated 2025).
Read-outs that look alike come from different tables or passages of the source.

Biological target: TEM-1 (Escherichia coli, UniProt P62593)
Conditions: read-out: KM TEM-1, cited from earlier work

Sequence of TEM-1 (P62593 24-286 limits assumed): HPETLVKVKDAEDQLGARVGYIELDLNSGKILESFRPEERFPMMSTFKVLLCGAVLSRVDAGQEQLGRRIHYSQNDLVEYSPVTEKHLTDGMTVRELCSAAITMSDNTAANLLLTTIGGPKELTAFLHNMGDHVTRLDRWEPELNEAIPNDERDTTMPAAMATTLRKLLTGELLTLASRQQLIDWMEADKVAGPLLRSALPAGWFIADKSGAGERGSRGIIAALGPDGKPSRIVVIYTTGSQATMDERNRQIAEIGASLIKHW

Structure (SMILES): CC1(C)S[C@@H]2[C@H](NC(=O)[C@H](N)c3ccccc3)C(=O)N2[C@H]1C(=O)O [ampicillin]
- Km (substrate hydrolysis): 40 µM

Structure (SMILES): CC1(C)S[C@@H]2[C@H](NC(=O)Cc3ccccc3)C(=O)N2[C@H]1C(=O)O [benzylpenicillin]
- Km (substrate hydrolysis): 26 µM

Structure (SMILES): O=C(Cc1cccs1)N[C@@H]1C(=O)N2C(C(=O)[O-])=C(C[n+]3ccccc3)CS[C@H]12 [cefaloridine]
- Km: 244 µM
